Measured values reported in ChEMBL document CHEMBL1159339, “Oxygenated analogues of gorgosterol and ergosterol from the soft coral Capnella lacertiliensis” (2003).

Assays:
[1] = target: Tyrosine-protein kinase Lck (Homo sapiens) (UniProt P06239); experiment: Inhibition of p56 LCK at 200 ug/ml; design: scale not given: the % may be the effect or the level left
Microbotryum violaceum [2] = experiment: Antimicrobial activity against Microbotryum violaceum at 10 ug; type: functional; conditions: read-out: IZ
[3] = system: Aspergillus pseudoglaucus; experiment: Antimicrobial activity against Eurotium repens at 10 ug; type: functional; conditions: read-out: IZ
Microbotryum violaceum [4] = experiment: Antimicrobial activity against Microbotryum violaceum at 20 ug; type: functional; conditions: read-out: IZ
[5] = system: Aspergillus pseudoglaucus; experiment: Antimicrobial activity against Eurotium repens at 20 ug; type: functional; conditions: read-out: IZ
Microbotryum violaceum [6] = experiment: Antimicrobial activity against Microbotryum violaceum at 25 ug; type: functional; conditions: read-out: IZ

Chain of Tyrosine-protein kinase Lck (Homo sapiens) (P06239 2-509 limits assumed): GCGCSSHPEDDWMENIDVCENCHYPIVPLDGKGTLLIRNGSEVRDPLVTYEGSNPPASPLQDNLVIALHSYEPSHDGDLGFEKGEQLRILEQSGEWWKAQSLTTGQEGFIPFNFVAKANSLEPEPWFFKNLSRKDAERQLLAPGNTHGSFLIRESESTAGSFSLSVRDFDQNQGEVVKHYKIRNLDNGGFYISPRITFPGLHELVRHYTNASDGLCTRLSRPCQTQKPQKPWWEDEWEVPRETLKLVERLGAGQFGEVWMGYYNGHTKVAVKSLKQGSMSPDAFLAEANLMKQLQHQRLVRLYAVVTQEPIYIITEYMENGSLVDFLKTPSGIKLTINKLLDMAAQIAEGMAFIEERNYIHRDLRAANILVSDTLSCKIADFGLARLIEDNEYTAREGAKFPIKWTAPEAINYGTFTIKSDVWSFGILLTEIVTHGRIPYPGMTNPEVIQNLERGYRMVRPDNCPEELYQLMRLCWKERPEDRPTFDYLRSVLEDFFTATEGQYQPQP

Activity [1]	Structure (SMILES)	zone of inhibition at 10 µg/disc (Microbotryum violaceum [2])	other results
42%	CC(=O)O[C@@H]1C[C@H]2[C@@H](CC=C3C[C@@H](O)CC[C@@]32C)[C@@H]2CC[C@H]([C@H](C)CC(O)[C@H](C)C(C)C)[C@@]12C (some centres undefined)	3 mm	–
47%	CC(=O)O[C@@H]1[C@H]2[C@@H](CC=C3C[C@@H](O)CC[C@@]32C)[C@@H]2CC(O)[C@H]([C@H](C)CC[C@H](C)C(C)C)[C@@]2(C)[C@@H]1O (some centres undefined)	3 mm	zone of inhibition at 10 µg/disc [3]: 2 mm
–	CC(=O)O[C@@H]1C[C@H]2[C@@H]([C@H](O)C=C3C[C@@H](O)CC[C@@]32CO)[C@@H]2CC[C@H]([C@H](C)[C@H]3C[C@]3(C)[C@H](C)C(C)C)[C@@]12C	2 mm	–
–	CC(=O)O[C@@H]1C[C@H]2[C@@H]([C@H](O)C=C3C[C@@H](O)CC[C@@]32C)[C@@H]2CC[C@H]([C@H](C)[C@H]3C[C@]3(C)[C@H](C)C(C)C)[C@@]12C	–	zone of inhibition at 20 µg/disc (Microbotryum violaceum [4]): 1 mm; zone of inhibition at 20 µg/disc [5]: 2 mm
–	CC(=O)O[C@@H]1[C@H](O)[C@H]2[C@@H](CC=C3C[C@@H](O)CC[C@@]32C)[C@@H]2CC(O)[C@H]([C@H](C)CC[C@H](C)C(C)C)[C@@]12C (some centres undefined)	–	zone of inhibition at 25 µg/disc (Microbotryum violaceum [6]): 1 mm
